We go through four compounds from ChEMBL document CHEMBL2331159, “Radiolytic transformation of rotenone with potential anti-adipogenic activity” (Bioorg Med Chem Lett, 2013).

The target in data set [1] is T1, Pancreatic triacylglycerol lipase (Sus scrofa, UniProt P00591).
T1 sequence (P00591 whole entry): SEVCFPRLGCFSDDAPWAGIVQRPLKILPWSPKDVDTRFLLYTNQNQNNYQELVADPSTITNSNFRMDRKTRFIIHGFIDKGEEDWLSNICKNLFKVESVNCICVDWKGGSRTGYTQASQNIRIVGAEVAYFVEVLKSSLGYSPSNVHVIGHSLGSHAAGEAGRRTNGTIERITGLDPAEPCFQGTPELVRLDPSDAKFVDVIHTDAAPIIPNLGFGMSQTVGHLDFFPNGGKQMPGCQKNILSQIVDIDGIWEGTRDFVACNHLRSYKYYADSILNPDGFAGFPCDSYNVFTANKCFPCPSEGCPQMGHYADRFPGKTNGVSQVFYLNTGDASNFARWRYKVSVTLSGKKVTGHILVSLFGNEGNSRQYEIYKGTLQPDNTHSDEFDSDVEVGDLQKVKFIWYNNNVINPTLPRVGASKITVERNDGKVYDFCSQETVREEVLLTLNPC
Description: (§1) Inhibition of pig pancreatic lipase assessed as hydrolysis of p-nitrophenylbutyrate to p-nitrophenol.

The test system of data set [2] is 3T3-L1. In words: Cytotoxicity against mouse 3T3L1 cells assessed as cell viability at 0.02 to 20 uM by MTT assay. In kind it is cell-based. Particulars: 3t3-l1, 20 µM.
Data set [3] has as its system 3T3-L1. Description: Antiadipogenic activity against mouse 3T3L1 cells assessed as inhibition of lipid deposition at 2 uM by Oil Red O staining. In kind it is functional.
Data set [4] deals with 3T3-L1. In words: Cytotoxicity against mouse 3T3L1 cells assessed as cell viability upto 2 uM by MTT assay. It is filed as cell-based.
The target of data set [5] is T2, Pancreatic triacylglycerol lipase (Sus scrofa) (UniProt P00591).
T2 sequence (whole entry): T1 sequence (P00591 whole entry)
The description is as §1.

For the compound `C=C(C)[C@H]1Cc2c(ccc3c2O[C@@H]2COc4cc(OC)c(OC)cc4[C@@H]2C3=O)O1` (stereo in doubt) [ROTENONE], in data set [1], the IC50 (usually the midpoint of a concentration-inhibition curve) was 79.1 µM.

As to `C=C(C)[C@H]1Cc2c(ccc3c2O[C@@H]2COc4cc(OC)c(OC)cc4[C@@H]2C3=O)O1` (stereo in doubt; 1) [ROTENONE], the Activity entry with 3T3-L1 [2] is given as “Toxic”. Besides, the IC50 in data set [1] is > 500 µM.

Turning to `C=C(C)[C@H]1Cc2c(ccc3c2O[C@@H]2COc4cc(OC)c(OC)cc4[C@@H]2[C@@]32CO2)O1` [ROTENOISIN A], in the data set with 3T3-L1 [3], the inhibition (as a rule, the change of the read-out against control, counted positive when it falls) at 2 µM was 70%. The Activity entry with 3T3-L1 [4] is given as “Non-toxic”. Moreover, in data set [5], the inhibition result was “Dose-dependent effect”. In addition, the IC50 in data set [1] is 6.3 µM.

With `C=C(C)[C@H]1Cc2c(ccc3c2O[C@@H]2COc4cc(OC)c(OC)cc4[C@@H]2[C@]32C[C@H]3O[C@@]3(O)[C@H](O)O2)O1` [ROTENOISIN B], the inhibition at 2 µM in the data set on 3T3-L1 [3] came to 70%. For the same compound, the Activity result in the data set on 3T3-L1 [4] is “Non-toxic”. The IC50 in data set [1] was 28.4 µM.
